Where a SMILES comes first, the peptide text is derived from it. [ ]: non-standard residue; d: D form. The star is where a group is joined. ξ: configuration not given here. Tle = CC(C)(C)[C@H](N)C(=O)O; ξNva = CCCC(N)C(=O)O; ξA = CC(N)C(=O)O; CF3 = FC(F)(F)*
Biological target: HCMV protease (Human cytomegalovirus)
Experiment: Micro molar potency to inhibit human cytomegalovirus (HCMV) protease

Structure (SMILES) | IC50
CC(NC(=O)[C@H](CC(=O)N(C)C)NC(=O)[C@@H](N)C(C)(C)C)C(=O)C(F)(F)F (stereo partly drawn) [(S)-2-((S)-2-Amino-3,3-dimethyl-butyrylamino)-N*4*,N*4*-dimethyl-N*1*-(3,3,3-trifluoro-1-methyl-2-oxo-propyl)-succinamide] (H-[Tle]-Asp(NMe2)-[ξA]-CF3) | 12 µM
CC(NC(=O)[C@H](CC(=O)N(C)C)NC(=O)[C@@H](O)C(C)(C)C)C(=O)C(F)(F)F (stereo partly drawn) [(S)-2-((S)-2-Hydroxy-3,3-dimethyl-butyrylamino)-N*4*,N*4*-dimethyl-N*1*-(3,3,3-trifluoro-1-methyl-2-oxo-propyl)-succinamide] | 20 µM
CC(NC(=O)[C@H](CC(=O)N(C)C)NC(=O)[C@@H](NC(=O)CC(C)(C)C)C(C)(C)C)C(=O)C(=O)N(C)C (stereo partly drawn) [(S)-2-[(S)-2-(3,3-Dimethyl-butyrylamino)-3,3-dimethyl-butyrylamino]-N*1*-(2-dimethylcarbamoyl-1-methyl-2-oxo-ethyl)-N*4*,N*4*-dimethyl-succinamide] | > 300 µM
Cc1ccc2nc(C(=O)C(C)NC(=O)[C@H](CC(=O)N(C)C)NC(=O)[C@@H](NC(=O)CC(C)(C)C)C(C)(C)C)oc2c1 (stereo partly drawn) [(S)-2-[(S)-2-(3,3-Dimethyl-butyrylamino)-3,3-dimethyl-butyrylamino]-N*4*,N*4*-dimethyl-N*1*-[1-methyl-2-(6-methyl-benzooxazol-2-yl)-2-oxo-ethyl]-succinamide] | 0.6 µM
CCCC(NC(=O)[C@H](CC(N)=O)NC(=O)[C@@H](NC(=O)[C@@H](NC(C)=O)C(C)C)C(C)C)C(=O)C(F)(F)F (stereo partly drawn) [(S)-2-[(S)-2-((S)-2-Acetylamino-3-methyl-butyrylamino)-3-methyl-butyrylamino]-N*1*-[1-(2,2,2-trifluoro-acetyl)-butyl]-succinamide] (Ac-VVN[ξNva]-CF3) | > 300 µM
CN(C)C(=O)C[C@H](NC(=O)[C@@H](NC(=O)CC(C)(C)C)C(C)(C)C)C(=O)N[C@H]1CN(OCc2ccccc2)C1=O [(S)-N*1*-((S)-1-Benzyloxy-2-oxo-azetidin-3-yl)-2-[(S)-2-(3,3-dimethyl-butyrylamino)-3,3-dimethyl-butyrylamino]-N*4*,N*4*-dimethyl-succinamide] | 33 µM

Source: BindingDB's records for doi:10.1021/jm970104t (Boehringer Ingelheim, 1998)
